Data from patent US10208007B2, “Use of strigolactones and strigolactone analogs for treating proliferative conditions” (The State of Israel, Ministry of Agriculture & Rural …, priority 2011, dated 2019).
Entries after “also recorded” stand apart in the source; their conditions may differ.

How the values were obtained:
MDA-MB-231 = experiment: XTT viability after timed exposure and strigolactone removal; assay type: cell-based, human; settings: 5 and 10 ppm, XTT at 24 hours
Method: As further detailed herein below in the Experimental section, strigolactones and strigolactone analogs inhibit growth through a G2-phase arrest and cause apoptosis at higher concentrations wherein the GR-24 treatment causes an increase in the percentage of MCF-7 and MDA-MB-231 cells in G2-phase. Cells were treated with strigolactone analogs to determine whether or not they alter cell cycle progression in the same way. Dose dependant increases in the percentage of cells in G2 phase were observed. […] After a total of 24 hours, an XTT assay was carried out.

U20S cells = experiment: Strigolactone analog induced gene expression changes; assay type: cell-based, human; settings: 5 ppm
Method: To further elucidate the transcriptional program by which strigolactone analogs may affect growth and survival of cancer cells, U20S cells were treated with ST-362 or MEB-55 (5 ppm) for either 6 or 24 hours to permit early and late gene expression changes to be distinguished. U20S cells were selected based on their enhanced sensitivity to strigolactone treatment (see FIG. 7). […] Up-regulation of cytokines (CCL3L3, GDF15) and growth factors (PGF), and down-regulation of TGFBR11 was also noted. Apoptosis regulating genes were also identified, including DDIT3, BIRC3 and BAG3. DDIT3 encodes a member of the CCAAT/enhancer-binding protein (C/EBP) family of transcription factors and functions as a dominant-negative inhibitor by forming heterodimers with other C/EBP members and preventing their DNA binding activity. DDIT3 is induced by stress, including DNA damage and DDIT3 over-expression can induce cell cycle arrest. After 6 hours, MEB-55 treatment was associated with increased expression of p21cip (CDKN1A), Cyclin F (CCNF), Cyclin A2 (CCNA2) and decreased expression of CDK6, whereas ST-362 induced only a modest down-regulation of Cyclin B1 (CCNB1). Therefore, changes in the expression profile of cell cycle regulators, was not a global hallmark of strigolactone exposure. The only exception was Cyclin G2 (CCNG2) whose expression was elevated in both ST-362 and MEB-55 treatment groups. Cyclin G2 is an unconventional cyclin homolog which is linked to growth inhibition and whose expression is induced by DNA damaging chemotherapeutics.

Cyclin B1 = experiment: Western blot analysis of cyclin B1 levels; assay type: cell-based, human; settings: DU145, 24 hour treatment, then ALLN 4 or 8 hours
[1] = tested on: MDA-MB-231 breast cancer cells; experiment: Xenograft tumor model; assay type: in vivo; settings: SCID mice, 10 mg/kg iv twice a week, 4 treatments
Method: To establish subcutaneous tumors, actively growing MDA-MB-231 breast cancer cells were harvested and 1.5×10^6 cells in 100 μl PBS were injected into the mammary fat pads of mice (n=15). The lesions were allowed to grow until their average sizes were approximately 4.5 mm×4.5 mm (about 3 weeks). The mice were then randomized into 3 groups for various treatments including vehicle control, and two strigolactone analogs: ST-362 and ST-357. Treatment started at day 1, 10 ppm (10 mg/Kg) twice a week for a total of 4 treatments. ST-362 and ST-357 were administered intravenously (iv). Body weight and tumor measurements were recorded twice weekly. Tumor cross-sectional area was calculated by multiplying the length×width and tumor volume was calculated by cubing the mean value of length and width. Results are summarized and plotted.
Data are expressed as mean±SD. Statistical significance was assessed by one-way ANOVA and Games-Howell Post Hoc test. A value of P<0.05 was considered significant and represents significance compared with untreated controls, unless indicated otherwise. Data was analyzed by Graphpad PRISMS and SPSS.

A549 = experiment: XTT viability assay; assay type: cell-based, human; settings: A549, 3 days
Method: (§1) Viability was assayed after 3 days (XTT, ATCC). IC50 concentrations are indicated (Table 3 above).

MDA-MB-436 = experiment: XTT viability assay; assay type: cell-based, human; settings: MDA-MB-436, 3 days
Method: as §1

CC1=CC(O/C=C2/C(=O)c3c(c4cc(-c5scc6c5OCCO6)ccc4n3C)C2C)OC1=O (stereo not drawn) [ST-362, (2E)-2-[(2,5-dihydro-4-methyl-5-oxofuran-2-yloxy)methylene]-1,2-dihydro-7-(2,3-dihydrothieno[3,4-b][1,4]dioxin-7-yl)-1,4-dimethyl-cyclopenta[b]indole-3-(4H)-one]
Cell viability (MDA-MB-231; 2 hours exposure): No significant changes; also recorded: No changes in cell viability | Cell viability (MDA-MB-231; 4 hours exposure, p<0.01): significant decrease in viability | Fold-Change ABCB1 (U20S cells; 6 hours): 3.6 fold | Fold-Change AHSA1 (U20S cells; 6 hours): 2.1 fold | Fold-Change ALDH1B1 (U20S cells; 6 hours): −2.1 fold | Fold-Change ATF3 (U20S cells; 6 hours): 2.2 fold | Fold-Change BAG3 (U20S cells; 6 hours): 4.6 fold | Fold-Change BIRC3 (U20S cells; 6 hours): −2.4 fold | Fold-Change CCL3L3 (U20S cells; 6 hours): 3.7 fold | Fold-Change CCNB1 (U20S cells; 6 hours): −2.1 fold | Fold-Change CCNG2 (U20S cells; 6 hours): 3.6 fold | Fold-Change CLDN12 (U20S cells; 6 hours): 2.3 fold | Fold-Change CYP24A1 (U20S cells; 6 hours): −2.6 fold | Fold-Change DDIT3 (U20S cells; 6 hours): 6.2 fold | Fold-Change FOXD1 (U20S cells; 6 hours): −2.4 fold | Fold-Change FOXO4 (U20S cells; 6 hours): 2.5 fold | Fold-Change GDF15 (U20S cells; 6 hours): 7.6 fold | Fold-Change GEM (U20S cells; 6 hours): 2.4 fold | Fold-Change HSPA1A (U20S cells; 6 hours): 7.3 fold | Fold-Change HSPA1B (U20S cells; 6 hours): 9.2 fold | Fold-Change HSPA1L (U20S cells; 6 hours): 2.7 fold | Fold-Change HSPA6 (U20S cells; 6 hours): 79.8 fold | Fold-Change HSPA7 (U20S cells; 6 hours): 23.3 fold | Fold-Change HSPB8 (U20S cells; 6 hours): 2.7 fold | Fold-Change PGF (U20S cells; 6 hours): 6.2 fold | Fold-Change PPP1R15A (U20S cells; 6 hours): 2.7 fold | Fold-Change PTGS2 (U20S cells; 6 hours): 3.4 fold | Fold-Change SLC3A2 (U20S cells; 6 hours): 3.6 fold | Fold-Change SLC7A11 (U20S cells; 6 hours): 2.2 fold | Fold-Change SLC31A2 (U20S cells; 6 hours): 2.3 fold | Fold-Change SLC44A2 (U20S cells; 6 hours): 2.5 fold | Fold-Change TGFBR2 (U20S cells; 6 hours): −2.0 fold | Fold-Change ABCA13 (U20S cells; 24 hours): −2.8 fold | Fold-Change AMPH (U20S cells; 24 hours): −3.5 fold | Fold-Change BIRC3 (U20S cells; 24 hours): 2.6 fold | Fold-Change CCL20 (U20S cells; 24 hours): 6.6 fold | Fold-Change CCNB1 (U20S cells; 24 hours): −2.2 fold | Fold-Change CCNG2 (U20S cells; 24 hours): 2.7 fold | Fold-Change CTGF (U20S cells; 24 hours): 2.4 fold | Fold-Change CYR61 (U20S cells; 24 hours): 3.6 fold | Fold-Change DHRS2 (U20S cells; 24 hours): −2.5 fold | Fold-Change DUSP5 (U20S cells; 24 hours): 3.9 fold | Fold-Change E2F2 (U20S cells; 24 hours): −3.3 fold | Fold-Change EGR1 (U20S cells; 24 hours): 2.2 fold | Fold-Change ESM1 (U20S cells; 24 hours): 6.9 fold | Fold-Change GDF15 (U20S cells; 24 hours): 4.2 fold | Fold-Change HSPA5 (U20S cells; 24 hours): −2.8 fold | Fold-Change ITGA2 (U20S cells; 24 hours): 3.4 fold | Fold-Change KIF20A (U20S cells; 24 hours): −4.7 fold | Fold-Change LAMA1 (U20S cells; 24 hours): 3.0 fold | Fold-Change RN7SK (U20S cells; 24 hours): 16.8 fold | Fold-Change SCG5 (U20S cells; 24 hours): 3.0 fold | Fold-Change SLC7A11 (U20S cells; 24 hours): 3.6 fold | Fold-Change SNORD3A (U20S cells; 24 hours): 4.1 fold | Fold-Change SNORD3C (U20S cells; 24 hours): 4.0 fold | Fold-Change SNORD3D (U20S cells; 24 hours): 4.8 fold | Fold-Change SPP1 (U20S cells; 24 hours): 3.9 fold | Fold-Change TGFBI (U20S cells; 24 hours): −3.4 fold | Partial rescue of Cyclin B1 levels by ALLN (Cyclin B1): 2 fold | Mean tumor volume ([1]; control 24.2±5.57): 17.7±4.28 mm^3 | Tumor growth ([1]; p<0.0015): effective in inhibiting tumor growth | IC50 at 72 h (A549): 6.7 ppm | IC50 at 72 h (MDA-MB-436): 5.9 ppm
